From article PMC5218480 (PLoS ONE, 2017)

Test system: MV-4-11 cells
Assay: Gene expression microarray analysis (Affymetrix PrimeView) and GSEA
Type: cell-based, human
Set-up: RFU PODN (11730768_x_at) / Fold change /veh PODN (11730768_x_at) / RFU LINC00158 (11744669_a_at) / Fold change /veh LINC00158 (11744669_a_at) / RFU DUSP10 (11751237_a_at) / Fold change /veh DUSP10 (11751237_a_at) / RFU ID3 (11757404_x_at) / Fold change /veh ID3 (11757404_x_at) / RFU PLEKHG5 (11737974_s_at) / Fold change /veh PLEKHG5 (11737974_s_at) / RFU LRRC4B (11730491_at) / Fold change /veh LRRC4B (11730491_at) / RFU GIMAP4 (11747438_a_at) / Fold change /veh GIMAP4 (11747438_a_at) / RFU KRT8 (11758183_x_at) / Fold change /veh KRT8 (11758183_x_at) / RFU CNN1 (11734310_a_at) / Fold change /veh CNN1 (11734310_a_at) / RFU VPS37D (11726825_at) / Fold change /veh VPS37D (11726825_at) / RFU C10orf10 (11716522_x_at) / Fold change /veh C10orf10 (11716522_x_at) / RFU KIR2DL2 /// KIR2DL4 /// KIR2DL5A /// KIR2DL5B /// KIR2DS1 /// KIR2DS2 /// KIR2DS3 /// KIR2DS4 /// KIR3DL3 /// KIR3DL3 /// KIR3DS1 (11738374_at) / Fold change /veh KIR2DL2 /// KIR2DL4 /// KIR2DL5A /// KIR2DL5B /// KIR2DS1 /// KIR2DS2 /// KIR2DS3 /// KIR2DS4 /// KIR3DL3 /// KIR3DL3 /// KIR3DS1 (11738374_at) / RFU C1QL1 (11718748_at) / Fold change /veh C1QL1 (11718748_at) / RFU TMPRSS4 (11747572_a_at) / Fold change /veh TMPRSS4 (11747572_a_at) / RFU HAMP (11756126_x_at) / Fold change /veh HAMP (11756126_x_at) / RFU RNFT2 (11725882_a_at) / Fold change /veh RNFT2 (11725882_a_at) / RFU NR4A2 (11747474_a_at) / Fold change /veh NR4A2 (11747474_a_at) / RFU ABCC12 (11746883_a_at) / Fold change /veh ABCC12 (11746883_a_at) / RFU TMEM136 (11760407_x_at) / Fold change /veh TMEM136 (11760407_x_at) / RFU CLDN22 /// WWC2 (11732394_at) / Fold change /veh CLDN22 /// WWC2 (11732394_at) / RFU HLA-DPB1 (11760878_x_at) / Fold change /veh HLA-DPB1 (11760878_x_at) / RFU SPINT1 (11716480_a_at) / Fold change /veh SPINT1 (11716480_a_at) / RFU GAP43 (11754022_s_at) / Fold change /veh GAP43 (11754022_s_at) / RFU A4GNT (11735810_at) / Fold change /veh A4GNT (11735810_at) / RFU PRB3 (11715151_x_at) / Fold change /veh PRB3 (11715151_x_at) / RFU TUBB4B (11761932_at) / Fold change /veh TUBB4B (11761932_at) / RFU CAPN14 (11732068_a_at) / Fold change /veh CAPN14 (11732068_a_at) / RFU TMCC2 (11721928_a_at) / Fold change /veh TMCC2 (11721928_a_at) / RFU IRGQ (11745062_a_at) / Fold change /veh IRGQ (11745062_a_at) / RFU FAM174B (11720279_a_at) / Fold change /veh FAM174B (11720279_a_at) / RFU TMPRSS4 (11748680_a_at) / Fold change /veh TMPRSS4 (11748680_a_at) / RFU FAM212B (11763350_a_at) / Fold change /veh FAM212B (11763350_a_at) / RFU PLEKHG5 (11743358_a_at) / Fold change /veh PLEKHG5 (11743358_a_at) / RFU ZSCAN30 (11745921_a_at) / Fold change /veh ZSCAN30 (11745921_a_at) / RFU CMKLR1 (11741424_a_at) / Fold change /veh CMKLR1 (11741424_a_at) / RFU LOC101060620 /// MAPK8IP1 (11723275_at) / Fold change /veh LOC101060620 /// MAPK8IP1 (11723275_at) / RFU SPTSSB (11747773_x_at) / Fold change /veh SPTSSB (11747773_x_at) / RFU PRSS12 (11739890_at) / Fold change /veh PRSS12 (11739890_at) / RFU BIN1 (11741810_x_at) / Fold change /veh BIN1 (11741810_x_at) / RFU WNT11 (11732464_a_at) / Fold change /veh WNT11 (11732464_a_at) / RFU C10orf10 (11716521_a_at) / Fold change /veh C10orf10 (11716521_a_at) / RFU C5orf56 (11738089_at) / Fold change /veh C5orf56 (11738089_at) / RFU CYB561 (11721691_x_at) / Fold change /veh CYB561 (11721691_x_at) / RFU ANKRD19P (11752326_a_at) / Fold change /veh ANKRD19P (11752326_a_at) / RFU OR2T12 /// OR2T33 /// OR2T8 (11738714_s_at) / Fold change /veh OR2T12 /// OR2T33 /// OR2T8 (11738714_s_at) / RFU VCAN (11748164_a_at) / Fold change /veh VCAN (11748164_a_at) / RFU JSRP1 (11732532_at) / Fold change /veh JSRP1 (11732532_at) / RFU KRTAP10-11 (11738290_x_at) / Fold change /veh KRTAP10-11 (11738290_x_at) / RFU MYO3A (11730013_a_at) / Fold change /veh MYO3A (11730013_a_at) / RFU EBF3 (11725865_a_at) / Fold change /veh EBF3 (11725865_a_at) / RFU CAMK2N1 (11719241_x_at) / Fold change /veh CAMK2N1 (11719241_x_at) / RFU C5orf56 (11738088_a_at) / Fold change /veh C5orf56 (11738088_a_at) / RFU OLFML3 (11715873_a_at) / Fold change /veh OLFML3 (11715873_a_at) / RFU LOC100653217 /// NTM (11731650_a_at) / Fold change /veh LOC100653217 /// NTM (11731650_a_at) / RFU MAPK11 (11762145_a_at) / Fold change /veh MAPK11 (11762145_a_at) / RFU FIZ1 (11724087_x_at) / Fold change /veh FIZ1 (11724087_x_at) / RFU OASL (11726364_x_at) / Fold change /veh OASL (11726364_x_at) / RFU SOX15 (11748057_x_at) / Fold change /veh SOX15 (11748057_x_at) / RFU CD79A (11719716_a_at) / Fold change /veh CD79A (11719716_a_at) / RFU HIST1H1D (11736915_at) / Fold change /veh HIST1H1D (11736915_at) / RFU CASKIN2 (11723855_a_at) / Fold change /veh CASKIN2 (11723855_a_at) / RFU LOC730098 (11760151_x_at) / Fold change /veh LOC730098 (11760151_x_at) / RFU OR4N2 (11742367_at) / Fold change /veh OR4N2 (11742367_at) / RFU PRRT2 (11749266_a_at) / Fold change /veh PRRT2 (11749266_a_at) / RFU SNX32 (11753110_a_at) / Fold change /veh SNX32 (11753110_a_at) / RFU CDHR5 (11726645_a_at) / Fold change /veh CDHR5 (11726645_a_at) / RFU RCAN1 (11760418_a_at) / Fold change /veh RCAN1 (11760418_a_at) / RFU FAM167A (11723789_a_at) / Fold change /veh FAM167A (11723789_a_at) / RFU FAM26E (11764081_at) / Fold change /veh FAM26E (11764081_at) / RFU ISYNA1 (11749810_s_at) / Fold change /veh ISYNA1 (11749810_s_at) / RFU ACY1 (11761880_at) / Fold change /veh ACY1 (11761880_at) / RFU 11764098_at / Fold change /veh 11764098_at / RFU SAMD14 (11745864_x_at) / Fold change /veh SAMD14 (11745864_x_at) / RFU NPB (11741838_a_at) / Fold change /veh NPB (11741838_a_at) / RFU TMPRSS6 (11731388_a_at) / Fold change /veh TMPRSS6 (11731388_a_at) / RFU KRTAP10-2 (11738614_at) / Fold change /veh KRTAP10-2 (11738614_at) / RFU ARHGAP8 /// PRR5-ARHGAP8 (11727945_x_at) / Fold change /veh ARHGAP8 /// PRR5-ARHGAP8 (11727945_x_at) / RFU KRTAP5-7 /// NADSYN1 (11734609_at) / Fold change /veh KRTAP5-7 /// NADSYN1 (11734609_at) / RFU RASL12 (11751679_a_at) / Fold change /veh RASL12 (11751679_a_at) / RFU CDKN2B (11736163_a_at) / Fold change /veh CDKN2B (11736163_a_at) / RFU PRF1 (11729649_at) / Fold change /veh PRF1 (11729649_at) / RFU, ZNF638 /// ZNF638-IT1 / Fold change vs veh, ZNF638 /// ZNF638-IT1 / RFU, PANK3 / Fold change vs veh, PANK3 / RFU, SH3YL1 / Fold change vs veh, SH3YL1 / RFU, ZEB2 / Fold change vs veh, ZEB2 / RFU, NRIP1 / Fold change vs veh, NRIP1 / RFU, PTTG1IP / Fold change vs veh, PTTG1IP / RFU, CAPN2 / Fold change vs veh, CAPN2 / RFU, MED14 / Fold change vs veh, MED14 / RFU, SNORA58 / Fold change vs veh, SNORA58 / RFU, C1orf63 / Fold change vs veh, C1orf63 / RFU, LRRFIP1 / Fold change vs veh, LRRFIP1 / RFU, NDUFAF7 / Fold change vs veh, NDUFAF7 / RFU, SLC12A2 / Fold change vs veh, SLC12A2 / RFU, IBTK / Fold change vs veh, IBTK / RFU, ESF1 / Fold change vs veh, ESF1 / Fold change vs veh, TMEM50B / RFU, TAOK1 / Fold change vs veh, TAOK1 / RFU, ACBD3 / Fold change vs veh, ACBD3 / RFU, TMA16 / Fold change vs veh, TMA16 / RFU, RWDD3 / Fold change vs veh, RWDD3 / RFU, BCAT1 / Fold change vs veh, BCAT1 / RFU, EDEM3 / Fold change vs veh, EDEM3 / RFU, TMEM33 / Fold change vs veh, TMEM33 / RFU, WDR75 / Fold change vs veh, WDR75 / RFU, AHCTF1 / Fold change vs veh, AHCTF1 / RFU, TFRC / Fold change vs veh, TFRC / RFU, ZDHHC17 / Fold change vs veh, ZDHHC17 / RFU, NOM1 / Fold change vs veh, NOM1 / RFU, ARL8B / Fold change vs veh, ARL8B / RFU, ZBTB11 / Fold change vs veh, ZBTB11 / RFU, TAMM41 / Fold change vs veh, TAMM41 / RFU, KIAA1704 /// LOC100996395 / Fold change vs veh, KIAA1704 /// LOC100996395 / RFU, ING1 / Fold change vs veh, ING1 / RFU, TRMT61B / Fold change vs veh, TRMT61B / RFU, FUBP3 / Fold change vs veh, FUBP3 / RFU, TP53 / Fold change vs veh, TP53 / RFU, TNKS2 / Fold change vs veh, TNKS2 / RFU, ZFP14 / Fold change vs veh, ZFP14 / RFU, ACTR2 / Fold change vs veh, ACTR2 / RFU, PPP3R1 / Fold change vs veh, PPP3R1 / RFU, PIK3R1 / Fold change vs veh, PIK3R1 / RFU, HNRNPA1 / Fold change vs veh, HNRNPA1 / RFU, RNF170 / Fold change vs veh, RNF170 / RFU, ZNF28 / Fold change vs veh, ZNF28 / RFU, RNGTT / Fold change vs veh, RNGTT / RFU, OGT / Fold change vs veh, OGT / RFU, BRD1 / Fold change vs veh, BRD1 / RFU, MARS / Fold change vs veh, MARS / RFU, ZNF655 / Fold change vs veh, ZNF655 / RFU, FAHD1 / Fold change vs veh, FAHD1 / RFU, BDP1 / Fold change vs veh, BDP1 / RFU, LRRCC1 / Fold change vs veh, LRRCC1 / RFU, ARID1A / Fold change vs veh, ARID1A / RFU, ZNF146 / Fold change vs veh, ZNF146 / RFU, ZNF330 / Fold change vs veh, ZNF330 / RFU, GPN3 / Fold change vs veh, GPN3 / RFU, C9orf123 / Fold change vs veh, C9orf123 / RFU, N4BP2L2 / Fold change vs veh, N4BP2L2 / RFU, ARFIP1 / Fold change vs veh, ARFIP1 / RFU, FAM179B / Fold change vs veh, FAM179B / RFU, BCL10 / Fold change vs veh, BCL10 / RFU, UHRF1BP1L / Fold change vs veh, UHRF1BP1L / RFU, BET1 / Fold change vs veh, BET1 / RFU, CNOT2 / Fold change vs veh, CNOT2 / RFU, ZNF268 / Fold change vs veh, ZNF268 / Fold change vs veh, ZNF507 / RFU, DGCR2 / Fold change vs veh, DGCR2 / RFU, WDSUB1 / Fold change vs veh, WDSUB1 / Fold change vs veh, HSP90B1 /// MIR3652 / RFU, ADSS / Fold change vs veh, ADSS / RFU, GK / Fold change vs veh, GK / RFU, ZNF148 / Fold change vs veh, ZNF148 / RFU, TAF9 / Fold change vs veh, TAF9 / RFU, SLC1A5 / Fold change vs veh, SLC1A5 / RFU, SLMO2 / Fold change vs veh, SLMO2 / RFU, ABCC4 / Fold change vs veh, ABCC4 / RFU, LOC101060439 /// RAP1B / Fold change vs veh, LOC101060439 /// RAP1B / RFU, RFX7 / Fold change vs veh, RFX7 / RFU, GTPBP10 / Fold change vs veh, GTPBP10 / RFU, CNEP1R1 / Fold change vs veh, CNEP1R1 / RFU, BIVM-ERCC5 /// ERCC5 / Fold change vs veh, BIVM-ERCC5 /// ERCC5 / RFU, ILF3 / Fold change vs veh, ILF3 / RFU 11762660_at / Fold change /veh 11762660_at / RFU VCAN (11757783_s_at) / Fold change /veh VCAN (11757783_s_at) / RFU DDX43 (11728927_at) / Fold change /veh DDX43 (11728927_at) / RFU KRT8 (11758188_x_at) / Fold change /veh KRT8 (11758188_x_at) / RFU NKD1 (11759106_at) / Fold change /veh NKD1 (11759106_at) / RFU SRD5A1 (11742802_a_at) / Fold change /veh SRD5A1 (11742802_a_at) / RFU TPSAB1 /// TPSB2 (11721975_s_at) / Fold change /veh TPSAB1 /// TPSB2 (11721975_s_at) / RFU GSTM3 (11746129_a_at) / Fold change /veh GSTM3 (11746129_a_at) / RFU IL23R (11737362_x_at) / Fold change /veh IL23R (11737362_x_at) / RFU TMEM51 (11727254_a_at) / Fold change /veh TMEM51 (11727254_a_at) / RFU PIWIL2 (11732686_x_at) / Fold change /veh PIWIL2 (11732686_x_at) / RFU ORM1 (11744905_x_at) / Fold change /veh ORM1 (11744905_x_at) / RFU CCDC152 (11743942_at) / Fold change /veh CCDC152 (11743942_at) / RFU ECM1 (11717891_a_at) / Fold change /veh ECM1 (11717891_a_at) / RFU IL23R (11748794_a_at) / Fold change /veh IL23R (11748794_a_at) / RFU TNFAIP8L3 (11732012_x_at) / Fold change /veh TNFAIP8L3 (11732012_x_at) / RFU MBOAT4 (11741988_at) / Fold change /veh MBOAT4 (11741988_at) / RFU 11764193_at / Fold change /veh 11764193_at / RFU TMEM53 (11763286_at) / Fold change /veh TMEM53 (11763286_at) / RFU MAGEB2 (11727129_at) / Fold change /veh MAGEB2 (11727129_at) / RFU TMEM200A (11744735_a_at) / Fold change /veh TMEM200A (11744735_a_at) / RFU CCDC152 (11751479_a_at) / Fold change /veh CCDC152 (11751479_a_at) / RFU FAM211A (11726209_a_at) / Fold change /veh FAM211A (11726209_a_at) / RFU RGS16 (11746705_a_at) / Fold change /veh RGS16 (11746705_a_at) / RFU VCAN (11755009_s_at) / Fold change /veh VCAN (11755009_s_at) / RFU RHOB (11743442_s_at) / Fold change /veh RHOB (11743442_s_at) / RFU RGS16 (11720943_a_at) / Fold change /veh RGS16 (11720943_a_at) / RFU RGS16 (11720944_at) / Fold change /veh RGS16 (11720944_at) / RFU, VPS4B / Fold change vs veh, VPS4B / RFU, CREB1 / Fold change vs veh, CREB1 / RFU, DNAJC13 / Fold change vs veh, DNAJC13 / RFU, GNAQ / Fold change vs veh, GNAQ / RFU, CDK5R1 / Fold change vs veh, CDK5R1 / RFU, ZRANB3 / Fold change vs veh, ZRANB3 / RFU, CUL4A / Fold change vs veh, CUL4A / RFU, CCNY / Fold change vs veh, CCNY / RFU, UFL1 / Fold change vs veh, UFL1 / RFU, COG3 / Fold change vs veh, COG3 / RFU, DIAPH2 / Fold change vs veh, DIAPH2 / RFU, SKA2 / Fold change vs veh, SKA2 / RFU, AFF3 / Fold change vs veh, AFF3 / RFU, LMF1 / Fold change vs veh, LMF1 / RFU, IPO11 / Fold change vs veh, IPO11 / RFU, DFFB / Fold change vs veh, DFFB / RFU, FOXP1 / Fold change vs veh, FOXP1 / RFU, CARD8 / Fold change vs veh, CARD8 / RFU, STRN3 / Fold change vs veh, STRN3 / RFU, ADK / Fold change vs veh, ADK / RFU, RASSF2 / Fold change vs veh, RASSF2 / RFU, WIPF1 / Fold change vs veh, WIPF1 / RFU, LARP1B / Fold change vs veh, LARP1B / RFU, RASA1 / Fold change vs veh, RASA1 / RFU, RB1 / Fold change vs veh, RB1 / RFU, PPFIA1 / Fold change vs veh, PPFIA1 / RFU, MAT2A / Fold change vs veh, MAT2A / RFU, CCT5 / Fold change vs veh, CCT5 / RFU, WDR92 / Fold change vs veh, WDR92 / RFU, CUX1 / Fold change vs veh, CUX1 / RFU, TTC7A / Fold change vs veh, TTC7A / RFU, TMEM135 / Fold change vs veh, TMEM135 / RFU, DEPTOR / Fold change vs veh, DEPTOR / RFU, CPM / Fold change vs veh, CPM / RFU, DNAJB6 / Fold change vs veh, DNAJB6 / RFU, CACNA2D3 / Fold change vs veh, CACNA2D3 / RFU, DTX4 / Fold change vs veh, DTX4 / RFU, TFCP2 / Fold change vs veh, TFCP2 / RFU, GMCL1 /// GMCL1P1 / Fold change vs veh, GMCL1 /// GMCL1P1 / RFU, AEBP2 / Fold change vs veh, AEBP2 / RFU, SNHG1 /// SNORD22 /// SNORD25 /// SNORD26 /// SNORD27 /// SNORD28 /// SNORD29 /// SNORD31 / Fold change vs veh, SNHG1 /// SNORD22 /// SNORD25 /// SNORD26 /// SNORD27 /// SNORD28 /// SNORD29 /// SNORD31 / Fold change (Aza/veh), C12orf56 (ProbeSet 11735607_a_at) / Fold change (ACY-1035/veh), C12orf56 (ProbeSet 11735607_a_at) / Fold change (Aza/veh), FGFR1OP (ProbeSet 11751329_s_at) / Fold change (ACY-1035/veh), FGFR1OP (ProbeSet 11751329_s_at) / Fold change (Aza/veh), VPS36 (ProbeSet 11739960_a_at) / Fold change (ACY-1035/veh), VPS36 (ProbeSet 11739960_a_at) / RFU SYPL1 (11715823_x_at) / Fold change /veh SYPL1 (11715823_x_at) / RFU IGFBP7 (11715501_s_at) / Fold change /veh IGFBP7 (11715501_s_at) / RFU REEP3 (11722064_at) / Fold change /veh REEP3 (11722064_at) / RFU IGLL1 (11728026_x_at) / Fold change /veh IGLL1 (11728026_x_at): dose or concentration left out as unconfirmed
Conditions: MV-4-11 cells, 48 hours

Nc1ccc(-c2cccs2)cc1NC(=O)c1ccc2c(c1)cc(C1CC1)n2CCN1CCOCC1 [ACY-1035]
RFU BIN1 (11741810_x_at): 33.72 RFU
